# From patent US20240208992A1, “MACROCYCLES AS CFTR MODULATORS” (Idorsia Pharmaceuticals Ltd, priority 2021, published 2024)
# Target: human F508del-CFTR (Homo sapiens, UniProt P13569, DEL508-508)
# Assay: F508del-CFTR cell surface expression (corrector activity), DiscoveRx ß-galactosidase complementation chemiluminescence assay in recombinant U2OS cell line;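 note: U2OS cells co-expressing ProLink-tagged F508del-CFTR and a membrane-anchored enzyme acceptor, where more surface CFTR restores β-galactosidase activity measured by chemiluminescence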
# Conditions: for EC50: EC50, F508del-CFTR cell surface expression; for Emax: U2OS
# [1] = U2OS cell line, 16h compound incubation, geomean values
# [2] = in relation to the Emax of the corrector lumacaftor (=100%), U2OS cell line, 16h compound incubation, arithmetic mean values
# [3] = U2OS cells, 16h compound incubation, geomean values
# [4] = in relation to Emax of corrector lumacaftor (=100%), arithmetic mean values
# human F508del-CFTR, sequence (P13569 with tags, fused parts or gaps DEL508-508): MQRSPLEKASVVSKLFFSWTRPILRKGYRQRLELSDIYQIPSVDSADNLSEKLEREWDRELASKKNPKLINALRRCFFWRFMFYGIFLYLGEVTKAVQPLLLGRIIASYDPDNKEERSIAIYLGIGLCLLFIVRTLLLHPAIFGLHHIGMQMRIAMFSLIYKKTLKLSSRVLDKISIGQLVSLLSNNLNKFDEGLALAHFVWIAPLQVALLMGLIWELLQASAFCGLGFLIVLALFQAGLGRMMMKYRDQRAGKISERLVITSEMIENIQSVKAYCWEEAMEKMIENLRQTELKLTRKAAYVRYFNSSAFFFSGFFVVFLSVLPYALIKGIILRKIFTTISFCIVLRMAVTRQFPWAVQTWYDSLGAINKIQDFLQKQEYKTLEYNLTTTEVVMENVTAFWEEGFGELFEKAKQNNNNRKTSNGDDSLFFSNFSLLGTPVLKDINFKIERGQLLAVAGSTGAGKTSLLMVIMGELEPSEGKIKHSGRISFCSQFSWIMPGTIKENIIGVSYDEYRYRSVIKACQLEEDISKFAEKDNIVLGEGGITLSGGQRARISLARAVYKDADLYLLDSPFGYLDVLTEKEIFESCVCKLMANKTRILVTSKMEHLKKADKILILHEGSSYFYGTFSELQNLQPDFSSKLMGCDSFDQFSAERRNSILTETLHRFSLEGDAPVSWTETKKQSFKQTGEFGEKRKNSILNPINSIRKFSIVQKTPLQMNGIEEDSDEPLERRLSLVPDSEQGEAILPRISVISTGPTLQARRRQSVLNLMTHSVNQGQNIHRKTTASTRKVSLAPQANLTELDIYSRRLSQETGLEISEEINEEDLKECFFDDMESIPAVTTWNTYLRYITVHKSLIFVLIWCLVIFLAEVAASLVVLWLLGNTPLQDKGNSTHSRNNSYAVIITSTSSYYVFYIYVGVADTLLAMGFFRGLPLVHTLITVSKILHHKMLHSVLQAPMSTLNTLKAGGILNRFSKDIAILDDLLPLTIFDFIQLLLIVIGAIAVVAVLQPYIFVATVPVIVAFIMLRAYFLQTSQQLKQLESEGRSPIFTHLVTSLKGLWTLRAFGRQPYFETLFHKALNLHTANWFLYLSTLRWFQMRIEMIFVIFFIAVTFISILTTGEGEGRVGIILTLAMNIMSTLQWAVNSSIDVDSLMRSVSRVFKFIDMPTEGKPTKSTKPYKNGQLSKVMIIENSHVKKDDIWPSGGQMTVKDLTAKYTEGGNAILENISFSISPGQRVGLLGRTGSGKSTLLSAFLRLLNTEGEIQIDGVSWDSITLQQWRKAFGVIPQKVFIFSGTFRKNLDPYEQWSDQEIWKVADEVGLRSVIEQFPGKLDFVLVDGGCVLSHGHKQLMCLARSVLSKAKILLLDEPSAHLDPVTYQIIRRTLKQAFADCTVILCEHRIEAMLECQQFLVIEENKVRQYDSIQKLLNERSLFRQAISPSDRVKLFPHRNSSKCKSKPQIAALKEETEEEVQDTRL
EC50 [1],Emax [2],SMILES,EC50 [3],Emax [4],also measured
201 nM,163%,"CC(C)C[C@H]1C(=O)N(C)CC(=O)N[C@H](Cc2ccccc2)COc2cc3c(cc2C(=O)N[C@H](C(=O)NCCc2ccc4c(c2)OCCCO4)CC(=O)N1C)OCO3 [Example 101, (7R,13S,17S)-7-benzyl-N-(2-(3,4-dihydro-2H-benzo[b][1,4]dioxepin-7-yl)ethyl)-13-isobutyl-11,14-dimethyl-9,12,15,19-tetraoxo-6,7,8,9,10,11,12,13,14,15,16,17,18,19-tetradecahydro-[1,3]dioxolo[4′,5′:4,5]benzo[1,2-p][1]oxa[4,7,10,14]tetraazacycloheptadecine-17-carboxamide]",,,
271 nM,229%,"Cc1cc(CCNC(=O)[C@@H]2CC(=O)N(C)[C@@H](CC(C)C)C(=O)N3CCCC[C@@H]3C(=O)N[C@H](Cc3ccccc3)COc3cnc4ccccc4c3C(=O)N2)ccc1-n1nccn1 [Example 125, (9S,13S,19aR,22R)-22-benzyl-13-isobutyl-12-methyl-N-(3-methyl-4-(2H-1,2,3-triazol-2-yl)phenethyl)-7,11,14,20-tetraoxo-7,8,9,10,11,12,13,14,17,18,19,19a,20,21,22,23-hexadecahydro-16H-pyrido[2′,1′:6,7][1]oxa[4,7,10,14]tetraazacycloheptadecino[17,16-c]quinoline-9-carboxamide]",,,
338 nM,193%,"CC(C)C[C@H]1C(=O)N(C)C2(CC2)C(=O)N[C@H](Cc2ccccc2)COc2cnc3ccc(F)cc3c2C(=O)N[C@H](C(=O)NCCc2cccc(C#N)c2)CC(=O)N1C [Example 168, (3′S,7′S,13′R)-13′-benzyl-N-(3-cyanophenethyl)-20′-fluoro-7′-isobutyl-6′,9′-dimethyl-1′,5′,8′,11′-tetraoxo-2′,3′,4′,5′,6′,7′,8′,9′,11′,12′,13′,14′-dodecahydro-1′H-spiro[cyclopropane-1,10′-[1]oxa[4,7,10,14]tetraazacycloheptadecino[17,16-c]quinoline]-3′-carboxamide]",,,
783 nM,243%,"COc1cccc2c1C(=O)N[C@H](C(=O)NCCc1ccc3c(c1)OCCCC3)CC(=O)N(C)[C@@H](CC(C)C)C(=O)N1CCOC[C@@H]1C(=O)N[C@H](Cc1ccccc1)CO2 [Example 260, (7S,11S,20R,22aR)-20-benzyl-7-isobutyl-14-methoxy-8-methyl-6,9,13,22-tetraoxo-N-(2-(2,3,4,5-tetrahydrobenzo[b]oxepin-8-yl)ethyl)-1,3,4,6,7,8,9,10,11,12,13,19,20,21,22,22a-hexadecahydrobenzo[p][1,4]oxazino[3,4-f][1]oxa[4,7,10,14]tetraazacycloheptadecine-11-carboxamide]",,,

# Second part, the compound before the results:
SMILES,EC50 [1],Emax [2],EC50 [3],Emax [4],also measured
"CC(C)C[C@H]1C(=O)N(C)CC(=O)N[C@H](Cc2ccccc2)COc2ccc(F)cc2C(=O)N[C@H](C(=O)NCCc2ccc3c(c2)OCO3)CC(=O)N1C [Example 234, (3R,9S,13S)-N-(2-(benzo[d][1,3]dioxol-5-yl)ethyl)-3-benzyl-17-fluoro-9-isobutyl-7,10-dimethyl-5,8,11,15-tetraoxo-2,3,4,5,6,7,8,9,10,11,12,13,14,15-tetradecahydrobenzo[p][1]oxa[4,7,10,14]tetraazacycloheptadecine-13-carboxamide]",471 nM,110%,,,
"COc1cccc(CCNC(=O)[C@@H]2CC(=O)N(C)[C@@H](CC(C)C)C(=O)N3CCN(S(=O)(=O)Cc4ccccc4)C[C@@H]3C(=O)N[C@H](Cc3ccccc3)COc3ccc4ccccc4c3C(=O)N2)c1 [Example 736, (4aR,7R,18S,22S)-7-benzyl-3-(benzylsulfonyl)-22-isobutyl-N-(3-methoxyphenethyl)-21-methyl-5,16,20,23-tetraoxo-2,3,4,4a,5,6,7,8,16,17,18,19,20,21,22,23-hexadecahydro-1H-naphtho[1,2-p]pyrazino[2,1-f][1]oxa[4,7,10,14]tetraazacycloheptadecine-18-carboxamide]",,,153 nM,286%,
"CC(C)C[C@H]1C(=O)N2CCCC[C@H]2C(=O)N[C@H](Cc2ccccc2)COc2cnc3c(F)cccc3c2C(=O)N[C@H](C(=O)NCCc2cc(C3CC3)on2)CC(=O)N1C [Example 497, (9S,13S,19aS,22R)-22-benzyl-N-(2-(5-cyclopropylisoxazol-3-yl)ethyl)-3-fluoro-13-isobutyl-12-methyl-7,11,14,20-tetraoxo-7,8,9,10,11,12,13,14,17,18,19,19a,20,21,22,23-hexadecahydro-16H-pyrido[2′,1′:6,7][1]oxa[4,7,10,14]tetraazacycloheptadecino[17,16-c]quinoline-9-carboxamide]",,,535 nM,171%,
"CC(C)C[C@H]1C(=O)N(C)C2(CC2)C(=O)N[C@H](Cc2ccccc2)COc2cnc3ccccc3c2C(=O)N[C@H](C(=O)NCCc2noc(C(C)(C)C)n2)CC(=O)N1C [Example 116, (3′S,7′S,13′R)-13′-benzyl-N-(2-(5-(tert-butyl)-1,2,4-oxadiazol-3-yl)ethyl)-7′-isobutyl-6′,9′-dimethyl-1′,5′,8′,11′-tetraoxo-2′,3′,4′,5′,6′,7′,8′,9′,11′,12′,13′,14′-dodecahydro-1′H-spiro[cyclopropane-1,10′-[1]oxa[4,7,10,14]tetraazacycloheptadecino[17,16-c]quinoline]-3′-carboxamide]",554 nM,253%,,,
"Cc1cc(CCNC(=O)[C@@H]2CC(=O)N(C)[C@@H](CC(C)C)C(=O)N(C)[C@H](Cc3nc(C(F)(F)F)no3)C(=O)N[C@H](Cc3ccccc3)COc3ccc4ncc(F)cc4c3C(=O)N2)on1 [Example 965, (3S,7S,10R,13R)-13-benzyl-20-fluoro-7-isobutyl-6,9-dimethyl-N-(2-(3-methylisoxazol-5-yl)ethyl)-1,5,8,11-tetraoxo-10-((3-(trifluoromethyl)-1,2,4-oxadiazol-5-yl)methyl)-1,2,3,4,5,6,7,8,9,10,11,12,13,14-tetradecahydro-[1]oxa[4,7,10,14]tetraazacycloheptadecino[16,17-f]quinoline-3-carboxamide]",,,,,"EC50 (U2OS cells, 16h compound incubation, geomean of several measurements): 32 nM; Emax (in relation to the Emax of the corrector lumacaftor (=100%), U2OS cells, 16h compound incubation, arithmetic mean): 453%"
"CC(C)C[C@H]1C(=O)N2CCOC[C@@H]2C(=O)N[C@H](Cc2ccccc2)COc2cnc3ccc(F)cc3c2C(=O)N[C@H](C(=O)NCCc2noc(C3CC3)n2)CC(=O)N1C [Example 489, (9S,13S,19aR,22R)-22-benzyl-N-(2-(5-cyclopropyl-1,2,4-oxadiazol-3-yl)ethyl)-5-fluoro-13-isobutyl-12-methyl-7,11,14,20-tetraoxo-7,8,9,10,11,12,13,14,16,17,19,19a,20,21,22,23-hexadecahydro-[1,4]oxazino[3′,4′:6,7][1]oxa[4,7,10,14]tetraazacycloheptadecino[17,16-c]quinoline-9-carboxamide]",,,625 nM,273%,
"CCOc1cccc(CCNC(=O)[C@@H]2CC(=O)N(C)[C@@H](CC(C)C)C(=O)N3CCN(CC4CC4)C[C@@H]3C(=O)N[C@H](Cc3ccccc3)COc3ccc4nc(C)oc4c3C(=O)N2)c1 [Example 427, (8S,12S,18aR,21R)-21-benzyl-17-(cyclopropylmethyl)-N-(3-ethoxyphenethyl)-12-isobutyl-4,11-dimethyl-6,10,13,19-tetraoxo-6,7,8,9,10,11,12,13,16,17,18,18a,19,20,21,22-hexadecahydro-15H-oxazolo[4′,5′:5,6]benzo[1,2-p]pyrazino[2,1-f][1]oxa[4,7,10,14]tetraazacycloheptadecine-8-carboxamide]",,,248 nM,274%,
"CN1CC(=O)N[C@H](Cc2ccccc2)COc2cc3c(cc2C(=O)N[C@H](C(=O)NCCc2ccc4c(c2)OCO4)CC(=O)N(C)[C@@H](CC2CCC2)C1=O)OCO3 [Example 7, (7R,13S,17S)-N-(2-(benzo[d][1,3]dioxol-5-yl)ethyl)-7-benzyl-13-(cyclobutylmethyl)-11,14-dimethyl-9,12,15,19-tetraoxo-6,7,8,9,10,11,12,13,14,15,16,17,18,19-tetradecahydro-[1,3]dioxolo[4′,5′:4,5]benzo[1,2-p][1]oxa[4,7,10,14]tetraazacycloheptadecine-17-carboxamide]",398 nM,118%,,,
"COc1cccc(CCNC(=O)[C@@H]2CC(=O)N(C)[C@@H](CC(C)C)C(=O)N3CCN(CCCO)C[C@@H]3C(=O)N[C@H](Cc3ccccc3)COc3ccc4ccccc4c3C(=O)N2)c1 [Example 451, (4aR,7R,18S,22S)-7-benzyl-3-(3-hydroxypropyl)-22-isobutyl-N-(3-methoxyphenethyl)-21-methyl-5,16,20,23-tetraoxo-2,3,4,4a,5,6,7,8,16,17,18,19,20,21,22,23-hexadecahydro-1H-naphtho[1,2-p]pyrazino[2,1-f][1]oxa[4,7,10,14]tetraazacycloheptadecine-18-carboxamide]",,,257 nM,307%,
"COc1cccc(CCNC(=O)[C@@H]2CC(=O)N(C)[C@@H](CC(C)C)C(=O)N3CCCC[C@@H]3C(=O)N[C@H](Cc3ccccc3)COc3ccc4ncoc4c3C(=O)N2)c1 [Example 343, (8S,12S,18aR,21R)-21-benzyl-12-isobutyl-N-(3-methoxyphenethyl)-11-methyl-6,10,13,19-tetraoxo-6,7,8,9,10,11,12,13,16,17,18,18a,19,20,21,22-hexadecahydro-15H-oxazolo[4′,5′:5,6]benzo[1,2-p]pyrido[2,1-f][1]oxa[4,7,10,14]tetraazacycloheptadecine-8-carboxamide]",332 nM,270%,,,
"Cc1cc2ccc3c(c2o1)C(=O)N[C@H](C(=O)NCCc1nc(C2CC2)no1)CC(=O)N(C)[C@@H](CC(C)C)C(=O)N(C)C1(CC1)C(=O)N[C@H](Cc1ccccc1)CO3 [Example 554, (8R,14S,18S)-8-benzyl-N-(2-(3-cyclopropyl-1,2,4-oxadiazol-5-yl)ethyl)-14-isobutyl-2,12,15-trimethyl-10,13,16,20-tetraoxo-7,8,9,10,13,14,15,16,17,18,19,20-dodecahydro-12H-spiro[benzofuro[7,6-p][1]oxa[4,7,10,14]tetraazacycloheptadecine-11,1′-cyclopropane]-18-carboxamide]",,,324 nM,310%,
